How the values were obtained:
Format in all cases: cell-based
[1] = test system: MV-4-11 cells; assay: Cell viability assay (CellTiter-Glo), MV-4-11; details: Homo sapiens, MV4-11, 24 hours incubation, 1% FBS, read-out: Average pIC50 by molecule MV-4-11 (converted)
In short: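 Luminescent ATP readout (CellTiter-Glo) at 24 hours measured viability, expressed relative to DMSO-treated wells. Compound was added directly to the medium as a 9–12-point threefold series starting at 30 uM, at 0.5% final DMSO. The medium contained FBS reduced to 1%.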

[2] = target: T1, MCL-1 protein (Homo sapiens, UniProt Q07820); assay: OPM-2 cells: MCL-1 protein degradation, Western blot; design: endogenous in cells; host or cells: OPM-2; details: OPM-2 cell line, 6 h treatment, 100 nM compound, vs DMSO
From the text: The effect of various compounds of the invention and the reference compounds on MCL-1 protein degradation in the OPM-2 cell line was investigated, using the degradation assay protocol below.
OPM-2 cells were maintained in RPMI-1640 medium, supplemented with penicillin/streptomycin and 10% Fetal Bovine Serum (FBS). During the treatment, FBS concentration was reduced to 1%.
(§1) Compound stocks were pre-diluted in DMSO and added directly to the cells growth medium (final DMSO concentration: 0.5%).
OPM-2 cells were collected, centrifuged (250 rcf, 5 min), resuspended in a growth medium containing 1% FBS and counted. The cell suspension was then adjusted to 1×10^6 cell/ml using a growth medium containing 1% FBS. Afterwards, 0.5×10^6 cells were seeded on 24-well plates in 0.5 mL of medium per well. Immediately after seeding cells, compounds in appropriate concentrations were added to the cell culture medium.
(§2) Following the treatment with the compounds, cells were collected from the plates and suspended in a lysis buffer (2% SDS, 50 mM Tris, pH 8.0, 100 U/ml Pierce Universal Nuclease for Cell Lysis, complete EDTA-free Protease Inhibitor Cocktail) and incubated on ice for 45 min. The amount of protein was determined via BCA assay, and the equal quantity of each sample was loaded on the precast gel for the protein separation. Following the electrophoresis and transfer to the membrane, the membrane was stained with Ponceau (0.1% (w/v) Ponceau in 5% acetic acid). After total protein detection, the stain was washed out using TBST. After the antibody staining for MCL-1 and α-tubulin, the membranes were washed and signals developed.
(§3) Densitometric values for MCL-1 were normalized to total protein level (the Ponceau Staining). [%] of protein reduction is calculated in comparison to the cells treated with DMSO, which stand for 0%.
The results for the 6 h treatment with 100 nM compounds are shown in Table 9, using the following labels: • <30% for 0-29% of MCL-1 protein reduction, • ≥30% for 30-49% of MCL-1 protein reduction, • ≥50% for 50-100% of MCL-1 protein reduction.

[3] = target: T1, MCL-1 protein; assay: DMS 114 cells: MCL-1 protein degradation, Western blot; design: endogenous in cells; details: DMS 114 cell line, 6 h treatment, 1 μM compound, vs DMSO
Experimental: The effect of various compounds of the invention on MCL-1 protein degradation in the DMS 114 cell line was investigated, using the degradation assay protocol below.
DMS 114 cells were maintained in Waymouth's MB 752/1 medium, supplemented with penicillin/streptomycin and 10% Fetal Bovine Serum (FBS).
as §1
DMS 114 cells were detached, collected, centrifuged (250 rcf, 5 min), resuspended in growth medium containing 10% FBS and counted. Cell suspension was then adjusted to 0.25×10^6 cell/ml using growth medium containing 10% FBS. Afterwards, 0.5×10^6 cells were seeded on 6-well plates in 2 mL of medium per well. Plates were then place in the incubator at 37° C. until treatment. Next day, compounds in appropriate concentrations were added to the wells and the plates incubated for additional 6 or 24 hours. DMSO was used as control (final concentration 0.5%).
as §2, with “washed on” for “collected from”, “plates, lysed with the” for “plates and suspended in a”, “MCL-1, PARP, cleaved Caspase 3” for “MCL-1”
as §3
The results for the 6 h treatment with 1 μM compounds are shown in Table 10, using the following labels: • <50% for 0-49% of MCL-1 protein reduction, • ≥50% for 50-74% of MCL-1 protein reduction, • ≥75% for 75-100% of MCL-1 protein reduction.

T1 sequence (Q07820 whole entry): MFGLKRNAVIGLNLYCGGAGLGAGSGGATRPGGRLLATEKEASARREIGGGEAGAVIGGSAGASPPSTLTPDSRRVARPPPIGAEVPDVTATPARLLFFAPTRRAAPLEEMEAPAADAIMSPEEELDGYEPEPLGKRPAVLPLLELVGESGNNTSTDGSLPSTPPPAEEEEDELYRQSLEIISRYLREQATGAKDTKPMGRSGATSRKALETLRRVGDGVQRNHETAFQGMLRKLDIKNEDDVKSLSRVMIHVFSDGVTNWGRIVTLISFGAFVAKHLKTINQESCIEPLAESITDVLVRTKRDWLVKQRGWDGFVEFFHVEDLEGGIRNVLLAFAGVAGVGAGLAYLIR

Cc1nn(C)c(C)c1-c1c(F)ccc2c(CCCOc3cccc4cc(F)ccc34)c(C(=O)O)n(CCN3CCN(C(=O)COc4cccc5c4C(=O)N(C4CCC(=O)NC4=O)C5=O)CC3)c12 (stereo not shown) [Compound 215, 1-{2-[4-(2-{[2-(2,6-dioxopiperidin-3-yl)-1,3-dioxo-2,3-dihydro-1H-isoindol-4-yl]oxy}acetyl)piperazin-1-yl]ethyl}-6-fluoro-3-{3-[(6-fluoronaphthalen-1-yl)oxy]propyl}-7-(1,3,5-trimethyl-1H-pyrazol-4-yl)-1H-indole-2-carboxylic acid]
IC50 [1]: ≤ 100 nM | Western blot, % of protein reduction [2]: ≥50%

Cc1nn2c(c1-c1c(Cl)ccc3c(CCCOc4cccc5cc(F)ccc45)c(C(=O)O)n(CCN4CCN(C(=O)COc5cccc6c5CN(C5CCC(=O)NC5=O)C6=O)CC4)c13)COCC2 (stereo not shown) [Compound 346, 6-Chloro-1-(2-(4-(2-((2-(2,6-dioxopiperidin-3-yl)-1-oxoisoindolin-4-yl)oxy)acetyl)piperazin-1-yl)ethyl)-3-(3-((6-fluoronaphthalen-1-yl)oxy)propyl)-7-(2-methyl-6,7-dihydro-4H-pyrazolo[5,1-c][1,4]oxazin-3-yl)-1H-indole-2-carboxylic acid]
IC50 [1]: ≤ 100 nM | Western blot, % of protein reduction [3]: ≥75% | Western blot, % of protein reduction [2]: ≥50%

Cc1nn(C)c(C)c1-c1c(Cl)ccc2c(CCCOc3cccc4cc(F)ccc34)c(C(=O)O)n(CCN3CCN(C(=O)Cn4c(C)nc5c(C(=O)NC6CCC(=O)NC6=O)cccc54)CC3)c12 (stereo not shown) [Compound 268, 6-chloro-1-{2-[4-(2-{4-[(2,6-dioxopiperidin-3-yl)carbamoyl]-2-methyl-1H-1,3-benzodiazol-1-yl}acetyl)piperazin-1-yl]ethyl}-3-{3-[(6-fluoronaphthalen-1-yl)oxy]propyl}-7-(1,3,5-trimethyl-1H-pyrazol-4-yl)-1H-indole-2-carboxylic acid]
Western blot, % of protein reduction [3]: ≥75% | Western blot, % of protein reduction [2]: ≥50%

Cc1nn(C)c(C)c1-c1c(Cl)ccc2c(CCCOc3cccc4cc(F)ccc34)c(C(=O)O)n(CCN3CCN(C(=O)COc4cccc5c4CN(C4CCC(=O)NC4=O)C5=O)CC3)c12 (stereo not shown) [Compound 220, 6-chloro-1-{2-[4-(2-{[2-(2,6-dioxopiperidin-3-yl)-1-oxo-2,3-dihydro-1H-isoindol-4-yl]oxy}acetyl)piperazin-1-yl]ethyl}-3-{3-[(6-fluoronaphthalen-1-yl)oxy]propyl}-7-(1,3,5-trimethyl-1H-pyrazol-4-yl)-1H-indole-2-carboxylic acid]
IC50 [1]: ≤ 31.6 nM | Western blot, % of protein reduction [3]: ≥75% | Western blot, % of protein reduction [2]: ≥50%

Cc1nn(C)c(C)c1-c1c(Cl)ccc2c(CCCOc3cccc4ccccc34)c(C(=O)O)n(CCN3CCN(C(=O)COc4cccc5c4C(=O)N(C4CCC(=O)NC4=O)C5=O)CC3)c12 (stereo not shown) [Compound 204, 6-chloro-1-(2-(4-(2-((2-(2,6-dioxopiperidin-3-yl)-1,3-dioxoisoindolin-4-yl)oxy)acetyl)piperazin-1-yl)ethyl)-3-(3-(naphthalen-1-yloxy)propyl)-7-(1,3,5-trimethyl-1H-pyrazol-4-yl)-1H-indole-2-carboxylic acid]
IC50 [1]: ≤ 100 nM | Western blot, % of protein reduction [3]: ≥50% | Western blot, % of protein reduction [2]: ≥50%
